# Experiment: CO2 wash test of model fragrance A on cotton fabric (supercritical fluid extractor, GC FID)
# Type: physicochemical
# Details: for fraction left on fabric: from the wash test of Table 2; for % Left on Fabric: supercritical CO2 43° C., 77 bar, density 0.25 g/ml, cotton fabric
# Procedure: The device used for this experiment was an Hewlett Packard 7680T SFE Supercritical Fluid Extractor. 1 g of cotton fabric was put into a 7 ml Thimble. 0.01 grams of the model fragrance A was applied to the uppermost part of the fabric representing the earliest stage of the CO2 cleaning process.
# The CO2 properties used were: density=0.25 g/ml, pressure=77 bar (Pc=73.8 bar), temperature=43° C. These were supercritical as the Critical Temperature for CO2 is 31.1° C.
# CO2 was introduced into the thimble and allowed to soak for 2 min. The thimble was flushed with CO2 for 5 min at a flow rate of 2 ml/min. The CO2/fragrance mixture was carried into the trap where the CO2 was evaporated leaving the fragrance on the analytical trap packing being maintained at −30 deg C. The trap was rinsed with Acetone. The fragrance/acetone mixture was analyzed using gas chromatography with flame ionization detection (GC FID).
# The results on the GC FID were used to calculate the % of each fragrance ingredient that was retained on the fabric. (90% means that 90% of the fragrance was substantive on the fabric).
Compound,fraction left on fabric,% Left on Fabric
CCCCC/C(C=O)=C/c1ccccc1 [Amyl Cinnamic Aldehyde],0.83,85%
CC(=O)OCc1ccccc1 [Benzyl Acetate],0.799,80%
O=C(OCc1ccccc1)c1ccccc1O [Benzyl Salicylate],0.908,91%
C[C@@H]1CC[C@H]2C(C)(C)[C@H]3C[C@@]12CC[C@@]3(C)O [Cedrol],0.839,84%
CC(=O)O[C@]1(C)CC[C@@]23C[C@@H]1C(C)(C)[C@@H]2CC[C@H]3C [Cedryl Acetate],0.834,83%
O=c1ccc2ccccc2o1 [Coumarin],0.945,94%
CCOC(=O)c1ccccc1C(=O)OCC [Diethyl Phthalate],0.807,81%
C=CC(C)CCCC(C)(C)O (centres unmarked) [Dihydro Myrcenol],0.737,74%
CC(=O)OC(C)(C)Cc1ccccc1 [Dimethyl Benzyl Carbinyl Acetate],0.689,69%
O=C1CCCCCCCCCCCC(=O)OCCO1 [Ethylene Brassylate],0.928,93%
C=CCc1ccc(O)c(OC)c1 [Eugenol],0.794,79%
"CC(C)=CCC/C(C)=C/CO [Geraniol, Supra]",0.769,77%
"CC(C)=CCCC(C)CCO (centres unmarked) [Gitronellol 950, Citronellol 950]",0.763,76%
CC(=O)c1c(C)c([N+](=O)[O-])c(C(C)(C)C)c([N+](=O)[O-])c1C [Musk Ketone],0.905,91%

# Other lines, results leading:
fraction left on fabric,% Left on Fabric,Compound
0.741,74%,CC(=O)O[C@@H]1C[C@H]2CC[C@]1(C)C2(C)C (racemic) [Iso Bornyl Acetate]
0.863,86%,CCCCCCC(C=O)=Cc1ccccc1 [Hexyl Cinnamic Aldehyde]
0.846,85%,CC(CC=O)CCCC(C)(C)O (centres unmarked) [Hydroxy Citronellal P]
0.729,73%,"CC(=O)/C=C/C1C(C)=CCCC1(C)C (stereo not drawn) [Ionone, Alpha]"
0.759,76%,CC(C)CCOC(=O)c1ccccc1O [Iso Amyl Salicylate]
0.781,78%,CC(C=O)Cc1ccc(C(C)(C)C)cc1 (centres unmarked) [Lilial]
0.977,98%,C=C(C)[C@H]1CC=C(C)CC1 [Limonene D]
0.687,69%,CC(=O)OC1CCC(C(C)(C)C)CC1 (centres unmarked) [Oryclon/Vertenex]
0.698,70%,CC(=O)OCCc1ccccc1 [Phenyl Ethyl Acetate]
–,83%,OCCc1ccccc1 [Phenyl Ethyl Alcohol]
0.989,99%,"CC1=CCC2CC1C2(C)C (stereo not drawn) [Pinene, Alpha, alpha-Pinene]"
0.995,100%,"C=C1CCC2CC1C2(C)C (stereo not drawn) [Pinene, Beta, beta-Pinene]"
0.969,97%,CC(=O)OCC=C(C)C [Prenyl acetate]
–,74%,Methyl Ionone Gamma Coeur
0.691,69%,"Terpineol, Pure"
